In patent publication US12130255B2, “High-throughput label-free enzymatic bioassays using DESI-MS” (priority 2020, dated 2024):

Tests used:
[1] = molecular target: T1, acetylcholinesterase (AChE) (Homo sapiens, UniProt P22303); experiment: DESI-MS label-free acetylcholinesterase inhibition assay, dose-response curves; format: biochemical
[2] = molecular target: T1, acetylcholinesterase (AChE); experiment: DESI-MS AChE inhibition, Dixon plot (inhibitor and substrate concentrations varied); format: biochemical
Method: For kinetic determinations the reactions were incubated for 50 minutes, with the concentration of substrate held kept between 0.4 to 1 mM, while the concentration of enzyme was set to 180 ng/mL. Note that only concentrations within the calibration range were used. The calibrated result (inset) is used to determine v0 of the reaction. The data shown come from eight instrumental replicates from a single mixture (128 spots), acquired in less than 2.5 minutes.
Further characterization of the inhibitors was achieved by screening simultaneously different concentrations of inhibitor and the substrate in order to obtain the Dixon plot (FIG. 11). […] This Dixon plot required that 24 independent progress curves be determined: duplicate measurements taken on 12 combinations of concentrations of inhibitor (0, 40, 100, 200 nM) and substrate (0.6, 0.8, 1.0 mM). This required the analysis of 3072 spots, carried out in approx. 35 minutes, with simultaneous incubation time of 50 minutes.

T1 sequence (P22303 32-614, species assumed): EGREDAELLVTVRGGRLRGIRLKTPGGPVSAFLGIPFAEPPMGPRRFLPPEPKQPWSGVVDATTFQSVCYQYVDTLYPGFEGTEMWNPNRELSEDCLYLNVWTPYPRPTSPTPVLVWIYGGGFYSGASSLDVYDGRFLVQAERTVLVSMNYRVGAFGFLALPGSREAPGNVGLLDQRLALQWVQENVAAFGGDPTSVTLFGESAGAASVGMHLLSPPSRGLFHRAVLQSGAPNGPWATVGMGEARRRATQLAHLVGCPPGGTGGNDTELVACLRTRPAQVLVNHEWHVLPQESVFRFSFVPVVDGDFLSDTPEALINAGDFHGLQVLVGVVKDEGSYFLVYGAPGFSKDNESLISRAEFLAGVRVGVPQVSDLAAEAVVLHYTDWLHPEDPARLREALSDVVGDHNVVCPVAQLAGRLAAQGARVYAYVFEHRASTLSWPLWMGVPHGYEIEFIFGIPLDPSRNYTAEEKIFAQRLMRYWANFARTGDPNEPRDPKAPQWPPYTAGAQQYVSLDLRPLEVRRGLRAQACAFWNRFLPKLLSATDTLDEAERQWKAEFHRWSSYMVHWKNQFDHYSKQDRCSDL

Compound | IC50 [1] | type of inhibition (intersection of the lines in the Dixon plot) [2]
COc1ccc2c3c1O[C@H]1C(=O)CC[C@H]4[C@@H](C2)N(C)CC[C@]314 [hydrocodone] | 116 µM | 
CN(C)C(=O)Oc1cccc([N+](C)(C)C)c1 [neostigmine] |  | competitive inhibitor
COc1ccc2c3c1O[C@H]1C(=O)CC[C@@]4(O)[C@@H](C2)N(C)CC[C@]314 [oxycodone] | 0.122 µM | 
